Earlier results on one molecule are cited in patent US20050238693A1, “Process for the preparation and activation of susbstances and a means of producing same” (priority 2002, published 2005).

The test system of this data set is bone loss. Particulars: 400 mg dose twice a day; women relatively soon after menopause.

`[Ca]` [Calcium]: the “bone loss and bone density in spine, femoral neck and radial shaft” value is “avert bone loss and stabilized bone density”.
